{"source": "PubChem BioAssay AID504726", "about": "(Broad Institute, 2011)", "note": "Values joined by “and” are separate entries in the source; they are usually repeats but may differ in a detail not shown here. Equal entries are not always repeated. Active and inactive are the calls of the source.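 Rule for the calls: active = fitted half-maximal concentration for a cytotoxic signal drop no higher than ten times the top valid dose tested; inconclusive = flat curve between -70 and -30 percent, or an unreliable fit; inactive = flat within 30 percent, signal rise, or potency beyond limit.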"}
{"tested_on": "not listed separately", "assay": "viability loss in HeLa cells – cell-based, 24 h, cherry-picked samples, cytotoxicity control, dose response (AID 504726);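 for activity change, negative = cytotoxicity: 0% = DMSO neutral controls and -100% = mitoxantrone positive controls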", "conditions": "HeLa viability, CellTiter-Glo ATP luminescence, 24 h; at 35 µM (top of the series)"}
{"smiles": "CC(C)CCN1C(=O)c2cccc3c(N)ccc(c23)C1=O", "activity change, negative = cytotoxicity": "-14.7% (inactive)"}
{"smiles": "Cc1ccc(NC(=O)CN2C(=O)N/C(=C/c3cccn3-c3ccc(C(=O)O)cc3)C2=O)cc1", "activity change, negative = cytotoxicity": "-4.45% (inactive)"}
{"smiles": "N#CC1=C(N)Oc2ccc3ccc(O)cc3c2C1c1ccsc1", "note": "(stereo not drawn)", "activity change, negative = cytotoxicity": "5.49% (inactive)"}
{"smiles": "O=c1c2c(nc3cc(-c4ccc(F)cc4)[nH]n13)CCC2", "activity change, negative = cytotoxicity": "-13.7% (inactive)"}
{"smiles": "O=C(O)/C=C/C(=O)Nc1ccc(Cc2ccc(NC(=O)/C=C/C(=O)O)cc2)cc1", "activity change, negative = cytotoxicity": "6.62% (inactive)"}
{"smiles": "FC(F)(F)c1nnc(-c2ccccc2)nc1N1CCCC1", "activity change, negative = cytotoxicity": "-13.4% (inactive)"}
{"smiles": "CCn1c(SCc2nc3sc(C(=O)O)c(C)c3c(=O)[nH]2)nc2ccccc21", "activity change, negative = cytotoxicity": "-9.24% (inactive)"}
{"smiles": "CC(Cc1ccccc1)NC(=O)NC(C)Cc1ccccc1", "note": "(stereo not drawn)", "activity change, negative = cytotoxicity": "-7.16% (inactive)"}
{"smiles": "COc1ccc(C(=O)N/N=C/c2ccc(OC)c(COc3ccccc3)c2)cc1", "activity change, negative = cytotoxicity": "-5.44% (inactive)"}
{"smiles": "COc1ccc(OCC(=O)N2CCN(c3cccc(C(F)(F)F)c3)CC2)cc1", "activity change, negative = cytotoxicity": "-8.78% (inactive)"}
{"smiles": "CCN(C(=O)COC(=O)c1nc2nc(C)cc(C)n2n1)C1CCCCC1", "activity change, negative = cytotoxicity": "5.26% (inactive)"}
{"smiles": "C=CCNC(=O)c1cn(CC)c2cc(N3CCN(C(=O)c4ccco4)CC3)c(F)cc2c1=O", "activity change, negative = cytotoxicity": "6.14% (inactive)"}
{"smiles": "COc1cccc(C2CC(=O)Nc3cc4c(cc32)CCC4)c1", "note": "(stereo not drawn)", "activity change, negative = cytotoxicity": "14.6% (inactive)"}
{"smiles": "CN(CC(=O)Nc1ccc(N2CCOCC2)cc1)C(=O)CSc1ccc(Br)cc1", "activity change, negative = cytotoxicity": "0.641% (inactive)"}
{"smiles": "COc1ccc(CC(=O)O/N=C(\\N)c2ccc(OC)cc2)cc1", "activity change, negative = cytotoxicity": "-11.5% (inactive)"}
{"smiles": "CCOCCCn1c(SCC(=O)NC(C)(C)C)nc2ccccc2c1=O", "activity change, negative = cytotoxicity": "-18.7% (inactive)"}
{"smiles": "NNC(=O)CC1=NNC(=O)C1", "activity change, negative = cytotoxicity": "-0.701% (inactive)"}
{"smiles": "N=C1/C(=C/c2ccc(-c3cccc(C(=O)O)c3)o2)C(=O)N=C2SC(CC(=O)N3CCOCC3)=NN12", "activity change, negative = cytotoxicity": "-4.55% (inactive)"}
{"smiles": "O=C1C=C(c2ccoc2)N2CCC[C@H]2C1", "activity change, negative = cytotoxicity": "-3.65% (inactive)"}
{"smiles": "CCOC(=O)C1Nc2ccccc2C2C(O)C(O)CC12", "note": "(stereo not drawn)", "activity change, negative = cytotoxicity": "7.37% (inactive)"}
{"smiles": "CCN(CC(=O)Nc1ccc(OC)cc1)C(=O)c1cc([N+](=O)[O-])ccc1N1CCOCC1", "activity change, negative = cytotoxicity": "-3.5% (inactive)"}
{"smiles": "CCOC(=O)N1CCN(C(=S)NC(=O)c2cccc(OC)c2)CC1", "activity change, negative = cytotoxicity": "-2.14% (inactive)"}
{"smiles": "Cc1ccc(S(=O)(=O)Nc2ccc(Br)cc2C(NCC(=O)O)c2ccccc2)cc1", "note": "(stereo not drawn)", "activity change, negative = cytotoxicity": "0.422% (inactive)"}
{"smiles": "CNc1ccc2c3c(cccc13)C(=O)N(C)C2=O", "activity change, negative = cytotoxicity": "-12.7% (inactive)"}
{"smiles": "O=[N+]([O-])c1cc(-n2cnnn2)ccc1N1CCC(Cc2ccccc2)CC1", "activity change, negative = cytotoxicity": "-9.35% (inactive)"}
{"smiles": "CCCCc1ccc(C(=O)O)nc1", "activity change, negative = cytotoxicity": "-11.4% (inactive)"}
{"smiles": "COc1ccc(C(=O)c2ccsc2N)cc1", "activity change, negative = cytotoxicity": "2.38% (inactive)"}
{"smiles": "O=C(CSc1nc2ccccc2[nH]1)Nc1cccc(S(=O)(=O)N2CCOCC2)c1", "activity change, negative = cytotoxicity": "3.94% (inactive)"}
{"smiles": "CC(C)(C)OC(=O)N1CCC[C@H]1c1nnc(SCc2cccc(Cl)c2)o1", "activity change, negative = cytotoxicity": "-8.06% (inactive)"}
{"smiles": "Cc1ccc(NC(=S)N/C(=N/S(=O)(=O)c2ccccc2)c2ccccc2)cc1", "activity change, negative = cytotoxicity": "6.71% (inactive)"}
{"smiles": "Nc1cccc2cc(S(=O)(=O)O)ccc12", "activity change, negative = cytotoxicity": "5.33% (inactive)"}
{"smiles": "COc1cccc(OCCCn2cc(/C=C3/C(=N)N4C=C(C)SC4=NC3=O)c3ccccc32)c1", "activity change, negative = cytotoxicity": "-7.08% (inactive)"}
{"smiles": "CCN(CC(=O)Nc1c(F)cccc1F)C(=O)CCCc1cccs1", "activity change, negative = cytotoxicity": "-23.5% (inactive)"}
{"smiles": "Nc1ccc2c3c(cccc13)C(=O)N(c1ccccc1)C2=O", "activity change, negative = cytotoxicity": "19% (inactive)"}
{"smiles": "COCCNC(=O)Cn1cc(/C=C2\\C(=O)NC(=O)N(c3cccc(C)c3C)C2=O)c2ccccc21", "activity change, negative = cytotoxicity": "-12.7% (inactive)"}
{"smiles": "C=CC1=C(C(=O)O)N2C(=O)[C@@H](NC(=O)/C(=N/OCC(=O)O)c3csc(N)n3)[C@H]2SC1", "activity change, negative = cytotoxicity": "-13.9% (inactive)"}
{"smiles": "N=C1/C(=C\\c2ccc(Br)o2)C(=O)N=C2SC(CC(=O)N3CCOCC3)=NN12", "activity change, negative = cytotoxicity": "1.98% (inactive)"}
{"smiles": "CC(C)=C[C@@H]1C[C@H](C)[C@H]2CC[C@H](C)c3c(O[C@@H]4O[C@@H](C)[C@@H](O)[C@@H](O)[C@@H]4O)c(O)c(C)c1c32", "activity change, negative = cytotoxicity": "-5.47% (inactive)"}
{"smiles": "Nc1nnc(CC(=O)N/N=C/c2cc([N+](=O)[O-])cc(Br)c2O)s1", "activity change, negative = cytotoxicity": "-8.04% (inactive)"}
{"smiles": "Cc1cc(/C=N/Nc2ccc([N+](=O)[O-])cn2)c(C)n1-c1cccc(C(=O)O)c1", "activity change, negative = cytotoxicity": "-4.63% (inactive)"}
{"smiles": "CN(C)c1ccc(O)c2c1CC1CC3[C@@H](N(C)C)C(=O)C(C(N)=O)=C(O)[C@]3(O)C(=O)C1=C2O", "note": "(stereo partly drawn)", "activity change, negative = cytotoxicity": "-1.73% (inactive)"}
{"smiles": "COC(=O)C[n+]1cccc2ccccc21", "activity change, negative = cytotoxicity": "-6.11% (inactive)"}
{"smiles": "CCn1c(=O)c(C(=O)NCCN2CCCCC2)c(O)c2ccccc21", "activity change, negative = cytotoxicity": "1.6% (inactive)"}
{"smiles": "O=C1CN=C(Nc2ccccc2Cl)N1Cc1ccc2c(c1)OCO2", "activity change, negative = cytotoxicity": "-6.04% (inactive)"}
{"smiles": "COc1ccc(-c2cnc3n2CCCCC3)cc1", "activity change, negative = cytotoxicity": "0.279% (inactive)"}
{"smiles": "COc1ccc(-c2nc(C(=O)O)cs2)cc1OC", "activity change, negative = cytotoxicity": "-5.71% (inactive)"}
{"smiles": "Cc1cc2nc3c(=O)n(C4CCCCC4)c(=O)[nH]c3nc2cc1N", "activity change, negative = cytotoxicity": "4.62% (inactive)"}
{"tested_on": "HeLa viability, CellTiter-Glo ATP luminescence, 24 h", "assay": "viability loss in HeLa cells – cell-based, 24 h, cherry-picked samples, cytotoxicity control, dose response (AID 504726);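 for activity change, negative = cytotoxicity: 0% = DMSO neutral controls and -100% = mitoxantrone positive controls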", "conditions": "not given"}
{"smiles": "O=C1c2c(O)ccc(O)c2C(=O)c2c(NCCNCCO)ccc(NCCNCCO)c21", "AC50": "1.36 µM and 4.08 µM"}
